Like-named read-outs stand apart in the source and are kept apart here.
What was measured:
HCT116 tumors = experiment: HCT116 tumor xenograft in zebrafish embryos; type: in vivo; conditions: for primary tumor size at day 3 relative to day 0: 10 µM in water, three days (day 2 to day 5); for metastasis (tumor cells in caudal hematopoietic plexus): 10 µM, 3 dpi
Procedure: Implantation of HCT116 cells into zebrafish embryos were carried out essentially as previously described. Briefly, HCT116 cells were cultured in McCoy’s medium supplemented with 10% FCS and penicillin/streptomycin until ~80% confluence, then labeled for 30 min at 37 °C in 6 μg/mL 1,1′-dioctadecyl-3,3,3′,3′-tetramethylindocarbocyanine perchlorate (DiI, Sigma) in PBS followed by washing 3x in PBS. Labeled cells were implanted in the perivitelline space of 48 hours post-fertilization (hpf) wildtype (AB) zebrafish embryos, kept from the 1-cell stage in 1-phenyl-2-thiourea (PTU)-containing E3-water. […] As control, embryos were incubated in PTU-E3 with 0.1% DMSO (vehicle). Tumor-bearing embryos were incubated at 36 °C for three days and the change in tumor volume was evaluated as the size of the tumors at three days post-implantation (3 dpi) relative to the size immediately after implantation (0 dpi). Metastasis was evaluated at 3 dpi as the number of tumor cells present in the caudal hematopoietic plexus, the main metastatic site for tumors implanted in the perivitelline space.

CDC25A = target: T1, CDC25A (Homo sapiens, UniProt P30304); experiment: Enzymatic assay (OMFP substrate) on recombinant CDC25A; type: biochemical; conditions: for remaining activity at 20 µM: compound 20 µM, relative to DMSO control; for IC50: dose-response on recombinant CDC25A
T1 construct: GST (pGEX vector) (N); made in house; host or cells: E. coli BL21
T1 sequence (P30304 1-524): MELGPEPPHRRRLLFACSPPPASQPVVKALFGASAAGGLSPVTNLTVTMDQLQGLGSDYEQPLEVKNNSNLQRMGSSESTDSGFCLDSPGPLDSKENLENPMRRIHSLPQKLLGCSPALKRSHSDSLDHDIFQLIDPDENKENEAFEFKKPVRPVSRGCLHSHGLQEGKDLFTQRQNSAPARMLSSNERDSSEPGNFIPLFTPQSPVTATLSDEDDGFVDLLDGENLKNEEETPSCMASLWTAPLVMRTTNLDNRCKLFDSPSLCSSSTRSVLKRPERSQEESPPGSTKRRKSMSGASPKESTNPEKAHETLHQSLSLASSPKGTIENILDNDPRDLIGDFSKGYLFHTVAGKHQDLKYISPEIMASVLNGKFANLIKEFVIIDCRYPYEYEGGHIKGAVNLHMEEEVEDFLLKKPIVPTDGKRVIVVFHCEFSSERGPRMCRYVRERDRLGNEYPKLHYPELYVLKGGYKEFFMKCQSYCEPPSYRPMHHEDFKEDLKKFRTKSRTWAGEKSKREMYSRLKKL
Procedure: 57 UPD compounds were dissolved in DMSO at 10 mM stock concentration and stored in
60 Expression and purification of CDC25 phosphatases - CDC25A (kind gift of I.
61 Hoffmann, Heidelberg, Germany), CDC25B and CDC25C (kind gift of B. Gabrielli,
62 Queensland, Australia) in pGEX were expressed in E. coli BL21 cells and purified on 1
63 ml Glutathione Sepharose 4 Fast Flow columns as described 1.
65 Enzymatic assays - CDC25A, CDC25B and CDC25C were appropriately diluted in 10
66 mM Tris-HCl pH 8.0, 50 mM NaCl and assayed in 20 mM Tris-HCl pH 8.0, 75 mM
67 NaCl, 0.5 mM EGTA, 1 mM DTT, 0.1 mg/ml BSA and defined concentrations of
68 compounds. Reactions were started by addition of the substrate OMFP (0.1 mM). Assays
69 were carried out at room temperature in duplicate or triplicate using transparent-bottom,
70 V-shaped 96 well plates and read at defined intervals on a Molecular Devices
71 SpectraMax microplate reader (ex: 490 nm / em: 525 nm). IC50 and kinetic parameters
72 calculated from Lineweaver-Burk double-reciprocal plots of the data were obtained using
73 GraphPad Prism software. […]

HeLa cells = experiment: Flow cytometric analysis of cell cycle progression (DNA content) in HeLa cells; type: cell-based; conditions: for effect on the G2/M transition: double-thymidine synchronized HeLa, 10 μM added 5 h upon release, analysed 12 h post-release; for progression through S-phase: HeLa, 10 µM added at release from double-thymidine block (early S-phase); for effect on cell cycle distribution (DNA content): asynchronous HeLa cells, 10 μM, 15 h
Procedure: Reactions were started by addition of the substrate OMFP (0.1 mM). Assays 69 were carried out at room temperature in duplicate or triplicate using transparent-bottom, 70 V-shaped 96 well plates and read at defined intervals on a Molecular Devices 71 SpectraMax microplate reader (ex: 490 nm / em: 525 nm). IC50 and kinetic parameters 72 calculated from Lineweaver-Burk double-reciprocal plots of the data were obtained using 73 GraphPad Prism software. 74 75 Cell culture - Wild-type HeLa and Kyoto HeLa cells stably expressing mCherry-H2B 76 were maintained in DMEM+L-Glutamine (Gibco, Life Technologies, USA) 77 supplemented with 5% fetal calf serum (FCS) (Gibco) and penicillin-streptomycin (100 […] A549 and Colo741 were grown and maintained like HeLa 79 cells but with 10% FCS. HCT116 were maintained in McCoy's medium supplemented 80 with 10% FCS and penicillin-streptomycin. U2OS-Tet-OFF cells expressing HA-CDC25 81 were grown and maintained in DMEM+L-Glutamine, 10% Tet-free FCS and penicillin- 82 streptomycin in the presence or the absence of 4 μg/ml tetracycline (Sigma, T7660). 83 84 Cell synchronization - Cell synchronization was performed by double thymidine block- 85 release protocol 2 or nocodazole treatment 3 and verified by flow cytometry. 86 87 Cell viability assays - Compounds viability upon 48h treatment with the compounds was 88 assessed as described 4. Data were plotted with Prism 7® and analyzed by non-linear 89 regression. Comparison of single curve fitting to all data set within an experiment was 90 performed with the extra sum-of-squares F-test to determine P values. 91 92 Western blotting - Cell lysis and immunoblot analysis were performed as previously 93 described 5. […] Cells were washed with PBS, resuspended […] To 100 quantify phosphorylation of CDK1 at Tyr15 and H2AX at S139, cells were harvested and 101 examined as described 6. Samples were measured on an AttuneTM NxT Cytometer 102 (ThermoFisher Scientific, Carlsbad, CA, USA) and data were analyzed with FlowJo® 103 software v10 (FlowJo, LLC, Ashland, OR, USA). 104 105 Real Time qRT-PCR - Organoids were lysed in Tri-Reagent (Sigma) as previously 106 described 7 and total RNA was isolated as described by manufacturer's instructions. For […] 108 High Fidelity cDNA Synthesis kit (Roche). Real-time quantitative PCR reactions were 109 performed in three independent biological replicates, each with technical triplicate, using 110 the Applied Biosystems SYBR Green Kit and monitored by the ABI Prism 7900HT 111 system (Applied Biosystem). The following primers were used: 112 Lgr5: Forward [NT] and Reverse 5'- […] 114 Lysozyme: Forward [NT] and Reverse 5'- 115 [NT]3' 116 Cryptdin: Forward [NT] and Reverse 5'- 117 [NT]-binding protein (TBP): Forward [NT] and 119 Reverse [NT] 120 […] 122 amplification curves and the melting temperature analysis of the final amplification […] 4

[1] = read-out: % remaining activity ± SD (Table S1, first round of selection)

SMILES	primary tumor size at day 3 relative to day 0 (HCT116 tumors)	metastasis (tumor cells in caudal hematopoietic plexus) (HCT116 tumors)	remaining activity at 20 µM (CDC25A; [1]) [%]	IC50 (CDC25A) [nM]	effect on the G2/M transition (HeLa cells)	effect on the G1/S transition (HeLa cells; HeLa synchronized at G2/M, 10 μM added in mid-G1, analysed 12 h post-release)	progression through S-phase (HeLa cells)	effect on cell cycle distribution (DNA content) (HeLa cells)	remaining activity at 20 µM (CDC25A; read-out: % remaining activity ± SD (Table S2, second round of selection)) [%]	mechanism of enzyme inhibition (CDC25A; kinetic analysis, mixed-model inhibition equation)	Ki (CDC25A; mixed-model inhibition equation) [nM]
O=C1C=C(c2ccc(O)cc2O)C(=O)c2c(O)cccc21 [UPD-140, 2-(2′,4′-dihydroxyphenyl)-8-hydroxy-1,4-naphthoquinone]	reduced to approximately half the size of the initial volume	reduction in metastasis achieved borderline significance	0.1 ± 0.1	1420	accretion of the G2/M peak	–	–	–	–	–	–
O=C1C(c2ccc(O)cc2O)=CC(=O)c2c(O)cccc21 [UPD-176, 5-hydroxy-2-(2,4-dihydroxyphenyl)naphthalene-1,4-dione]	tendency towards tumor regression, although not significant	did not appear to be significant	0	–	accretion of the G2/M peak	effectively blocked cells in G1	progression through S-phase was effectively held in check	accumulation of cells at G2/M	–	–	–
COc1cccc(SC2=CC(=O)c3cccc(O)c3C2=O)c1 [UPD-795, 2-(3-methoxyphenylthio)-8-hydroxynaphthalene-1,4-dione]	–	–	–	1250	–	–	progression through S-phase was effectively held in check	increase of the G1 population	0	mixed mechanism of enzyme inhibition	1180 ± 400
